# Measured values published in ChEMBL document CHEMBL1255477, “In vitro properties of BAL30072, a novel siderophore sulfactam with activity against multiresistant gram-negative bacilli” (Antimicrob Agents Chemother, 2010).
# “And” between values parts separate entries of the source, which are not always exact repeats. Identical values can stand only once. The source made the active and inactive calls. The calls are words filed in the database; no cut-off is given here.
# Key:
# [1] = test system: Klebsiella aerogenes; assay: Antimicrobial activity against Enterobacter aerogenes by broth dilution method; type: functional
# [2] = test system: Citrobacter freundii; assay: Antimicrobial activity against Citrobacter freundii by broth dilution method; type: functional
# [3] = test system: Providencia stuartii; assay: Antimicrobial activity against Providencia stuartii by broth dilution method; type: functional
# [4] = test system: Providencia rettgeri; assay: Antimicrobial activity against Providencia rettgeri by broth dilution method; type: functional
# [5] = test system: Klebsiella oxytoca; assay: Antimicrobial activity against Klebsiella oxytoca by broth dilution method; type: functional
# [6] = test system: Proteus mirabilis; assay: Antimicrobial activity against Proteus mirabilis by broth dilution method; type: functional
# [7] = test system: Serratia marcescens; assay: Antimicrobial activity against Serratia marcescens by broth dilution method; type: functional
# [8] = test system: Acinetobacter sp.; assay: Antimicrobial activity against Acinetobacter sp. by broth dilution method; type: functional
# [9] = test system: Burkholderia sp.; assay: Antimicrobial activity against Burkholderia sp. by broth dilution method; type: functional
# [10] = test system: Stenotrophomonas maltophilia; assay: Antimicrobial activity against Stenotrophomonas maltophilia by broth dilution method; type: functional
# [11] = test system: Pseudomonas aeruginosa; assay: Antimicrobial activity against Pseudomonas aeruginosa by broth dilution method; type: functional
# [12] = test system: Escherichia coli; assay: Antimicrobial activity against Escherichia coli K802N harboring beta-lactamase TEM-3 by broth dilution method; type: functional
# [13] = test system: Klebsiella pneumoniae; assay: Antimicrobial activity against Klebsiella pneumoniae 1357E harboring beta-lactamase TEM-10 by broth dilution method; type: functional
# [14] = test system: Escherichia coli; assay: Antimicrobial activity against Escherichia coli A harboring beta-lactamase CTX-M 15 by broth dilution method; type: functional
# [15] = test system: Klebsiella pneumoniae; assay: Antimicrobial activity against Klebsiella pneumoniae 26768WU harboring beta-lactamase SHV-5 by broth dilution method; type: functional
# [16] = test system: Klebsiella oxytoca; assay: Antimicrobial activity against Klebsiella oxytoca 1028E harboring beta-lactamase K1 by broth dilution method; type: functional
# [17] = test system: Serratia marcescens; assay: Antimicrobial activity against Serratia marcescens S6 harboring beta-lactamase SME-1.AmpC by broth dilution method; type: functional
# [18] = test system: Escherichia coli; assay: Antimicrobial activity against Escherichia coli nmcA harboring beta-lactamase NMCA by broth dilution method; type: functional
# [19] = test system: Klebsiella pneumoniae; assay: Antimicrobial activity against Klebsiella pneumoniae YC harboring beta-lactamase KPC-2,TEM-1and SHV-2 by broth dilution method; type: functional
# [20] = test system: Pseudomonas aeruginosa; assay: Antimicrobial activity against Pseudomonas aeruginosa HPA101-1477 harboring beta-lactamase IMP-1 by broth dilution method; type: functional
# [21] = test system: Pseudomonas aeruginosa; assay: Antimicrobial activity against Pseudomonas aeruginosa HPA10586 harboring beta-lactamase VIM-1 by broth dilution method; type: functional
# [22] = test system: Pseudomonas aeruginosa; assay: Antimicrobial activity against Pseudomonas aeruginosa HPA996 harboring beta-lactamase VIM-2 by broth dilution method; type: functional
# [23] = test system: Stenotrophomonas maltophilia; assay: Antimicrobial activity against Stenotrophomonas maltophilia B715 harboring beta-lactamase L1and L2 by broth dilution method; type: functional
# [24] = test system: Enterobacter cloacae; assay: Antimicrobial activity against Enterobacter cloacae 908R harboring beta-lactamase AmpC by broth dilution method; type: functional
# [25] = test system: Acinetobacter baumannii; assay: Antimicrobial activity against Acinetobacter baumannii HPA 4737 harboring beta-lactamase OXA-26 by broth dilution method; type: functional
# [26] = test system: Acinetobacter baumannii; assay: Antimicrobial activity against Acinetobacter baumannii HPA I-16 harboring beta-lactamase OXA-27 by broth dilution method; type: functional
# [27] = test system: Pseudomonas aeruginosa; assay: Antimicrobial activity against Pseudomonas aeruginosa B4 by broth dilution method; type: functional
# [28] = test system: Pseudomonas aeruginosa; assay: Antimicrobial activity against mexAB-oprM protein and mexCD-oprJ deficient Pseudomonas aeruginosa PAO253 overexpressing MexEF-OprN gene by broth dilution method; type: functional
# [29] = test system: Pseudomonas aeruginosa; assay: Antimicrobial activity against mexAB-oprM protein and mexZ deficient Pseudomonas aeruginosa PAO267 by broth dilution method; type: functional
# [30] = test system: Pseudomonas aeruginosa; assay: Antimicrobial activity against mexAB-oprM, mexCD-oprJ, mexEF-oprN, mexJK, mexXY, opmH and pscC gene deficient Pseudomonas aeruginosa PAO750 by broth dilution method; type: functional
# [31] = test system: Pseudomonas aeruginosa; assay: Antimicrobial activity against fpvA, fpvB, fptA and pirA gene deficient Pseudomonas aeruginosa 860 by broth dilution method; type: functional
# [32] = test system: Pseudomonas aeruginosa; assay: Antimicrobial activity against fpvA deficient Pseudomonas aeruginosa (560546)9 M.P. by broth dilution method; type: functional
# [33] = test system: Pseudomonas aeruginosa; assay: Antimicrobial activity against pfeA deficient Pseudomonas aeruginosa 134 by broth dilution method; type: functional
# [34] = test system: Pseudomonas aeruginosa; assay: Antimicrobial activity against Pseudomonas aeruginosa BA(C2-107) selected after 25 ug/ml of compound exposure by broth dilution method; type: functional
# [35] = test system: Pseudomonas aeruginosa; assay: Antimicrobial activity against Pseudomonas aeruginosa BA(C1-106) selected after 25 ug/ml of compound exposure by broth dilution method; type: functional
# [36] = test system: Enterobacter cloacae; assay: Microbicidal activity against Enterobacter cloacae S4741B selected after 4 times MIC compound exposure; type: functional
# [37] = test system: Pseudomonas aeruginosa; assay: Antimicrobial activity against Pseudomonas aeruginosa BA by broth dilution method; type: functional
# [38] = test system: Acinetobacter baumannii; assay: Antimicrobial activity against Acinetobacter baumannii HPA74510 assessed as appearance of colony at 4 times MIC concentration; type: functional, organism-based
# [39] = test system: Acinetobacter junii; assay: Antimicrobial activity against Acinetobacter junii 15218 assessed as appearance of colony at 4 times MIC concentration; type: functional
# [40] = test system: Enterobacter cloacae; assay: Antimicrobial activity against Enterobacter cloacae S4741B assessed as appearance of colony at 4 times MIC concentration; type: functional
# [41] = test system: Enterobacter cloacae; assay: Antimicrobial activity against Enterobacter cloacae S9369 assessed as appearance of colony at 4 times MIC concentration; type: functional, organism-based
# [42] = test system: Escherichia coli; assay: Antimicrobial activity against Escherichia coli W3110 assessed as appearance of colony at 4 times MIC concentration; type: functional, organism-based
# [43] = test system: Pseudomonas aeruginosa; assay: Antimicrobial activity against Pseudomonas aeruginosa 621 assessed as appearance of colony at 4 times MIC concentration; type: functional
# [44] = test system: Pseudomonas aeruginosa; assay: Antimicrobial activity against Pseudomonas aeruginosa 860 assessed as appearance of colony at 4 times MIC concentration; type: functional
# [45] = test system: Acinetobacter baumannii; assay: Antimicrobial activity against Acinetobacter baumannii HPA74510 assessed as number of passages required for MIC to rise above 4 times original MIC; type: functional
# [46] = test system: Enterobacter cloacae; assay: Antimicrobial activity against Enterobacter cloacae S9369 assessed as number of passages required for MIC to rise above 4 times original MIC; type: functional
# [47] = test system: Stenotrophomonas maltophilia; assay: Antimicrobial activity against Stenotrophomonas maltophilia 1AC736 assessed as number of passages required for MIC to rise above 4 times original MIC; type: functional
# [48] = test system: Serratia marcescens; assay: Antimicrobial activity against Serratia marcescens 1T9 harboring beta-lactamase Class C by broth dilution method; type: functional
# [49] = test system: Acinetobacter baumannii; assay: Antimicrobial activity against Acinetobacter baumannii HPA 327009 harboring beta-lactamase OXA-25 by broth dilution method; type: functional
# [50] = test system: Pseudomonas aeruginosa; assay: microbe, parasite or virus in culture; details: BA
# Description: Antimicrobial activity against Pseudomonas aeruginosa BA harboring beta-lactamase Class C by broth dilution method
# [51] = test system: Pseudomonas aeruginosa; assay: microbe, parasite or virus in culture; details: PAO1
# Description: Antimicrobial activity against Pseudomonas aeruginosa PAO1 by broth dilution method
# [52] = test system: Pseudomonas aeruginosa; assay: microbe, parasite or virus in culture; details: 18S/H
# Description: Antimicrobial activity against Pseudomonas aeruginosa 18S/H harboring beta-lactamase Class C by broth dilution method
# [53] = Pseudomonas aeruginosa, BA, read-out: MIC
structure (smiles),measurement,setting,value
CC1(C)[C@H](NC(=O)/C(=N\OCc2cc(=O)c(O)cn2O)c2csc(N)n2)C(=O)N1OS(=O)(=O)O (stereo in doubt),MIC50,[1],0.5 µg/mL
same,MIC90,[1],16 µg/mL
same,MIC50,[2],4 µg/mL
same,MIC90,[2],16 µg/mL
same,MIC,[3],≤ 0.06 µg/mL
same,MIC50,[3],≤ 0.06 µg/mL
same,MIC90,[3],≤ 0.06 µg/mL
same,MIC,[4],≤ 0.06 µg/mL
same,MIC50,[4],≤ 0.06 µg/mL
same,MIC90,[4],≤ 0.06 µg/mL
same,MIC50,[5],0.125 µg/mL
same,MIC90,[5],4 µg/mL
same,MIC,[6],≤ 0.06 µg/mL
same,MIC50,[6],≤ 0.06 µg/mL
same,MIC90,[6],0.25 µg/mL
same,MIC50,[7],2 µg/mL
same,MIC90,[7],4 µg/mL
same,MIC50,[8],0.5 µg/mL
same,MIC90,[8],4 µg/mL
same,MIC,[9],≤ 0.06 µg/mL
same,MIC50,[9],≤ 0.06 µg/mL
same,MIC90,[9],0.125 µg/mL
same,MIC50,[10],0.5 µg/mL
same,MIC90,[10],2 µg/mL
same,MIC50,[11],2 µg/mL
same,MIC90,[11],8 µg/mL
same,MIC,[12],> 32 µg/mL
same,MIC,[13],4 µg/mL
same,MIC,[14],0.125 µg/mL
same,MIC,[15],> 32 µg/mL
same,MIC,[16],0.5 µg/mL
same,MIC,[17],≤ 0.06 µg/mL
same,MIC,[18],1 µg/mL
same,MIC,[19],> 32 µg/mL
same,MIC,[20],2 µg/mL
same,MIC,[21],2 µg/mL
same,MIC,[22],1 µg/mL
same,MIC,[23],0.25 µg/mL
same,MIC,[24],4 µg/mL
same,MIC,[25],8 µg/mL
same,MIC,[26],0.5 µg/mL
same,MIC,[27],0.5 µg/mL
same,MIC,[28],0.5 µg/mL
same,MIC,[29],≤ 0.06 µg/mL
same,MIC,[30],≤ 0.06 µg/mL
same,MIC,[31],1 µg/mL
same,MIC,[32],1 µg/mL
same,MIC,[33],1 µg/mL
same,MIC,[34],8 µg/mL
same,MIC,[35],16 µg/mL
same,MBC,[36],4 µg/mL
same,MIC,[37]; [53],1 µg/mL
same,Activity,[38],Active
same,Activity,[39],Active
same,Activity,[40],7 frequency
same,Activity,[41],Active
same,Activity,[42],Active
same,Activity,[43],2.8 frequency and 2.5 frequency
same,Activity,[44],7 frequency
same,Activity,[45],6 passages
same,Activity,[46],8 passages
same,Activity,[47],4 passages
same,MIC,[48],1 µg/mL
same,MIC,[49],4 µg/mL
same,MIC,[50],0.5 µg/mL
same,MIC,[51],2 µg/mL
same,MIC,[52],2 µg/mL
C[C@@H](O)[C@H]1C(=O)N2C(C(=O)O)=C(S[C@@H]3CN[C@H](C(=O)N(C)C)C3)[C@H](C)[C@H]12 [MEROPENEM],MIC50,[1],0.25 µg/mL
same,MIC90,[1],4 µg/mL
same,MIC,[2],≤ 0.06 µg/mL
same,MIC50,[2],≤ 0.06 µg/mL
same,MIC90,[2],0.25 µg/mL
same,MIC50,[3],0.25 µg/mL
same,MIC90,[3],> 32 µg/mL
same,MIC50,[4],0.25 µg/mL
same,MIC90,[4],> 32 µg/mL
same,MIC50,[5],≤ 0.06 µg/mL
same,MIC90,[5],1 µg/mL
same,MIC50,[6],0.125 µg/mL
same,MIC90,[6],0.5 µg/mL
same,MIC50,[7],0.125 µg/mL
same,MIC90,[7],4 µg/mL
same,MIC50,[8],1 µg/mL
same,MIC90,[8],> 32 µg/mL
same,MIC50,[9],2 µg/mL
same,MIC90,[9],4 µg/mL
same,MIC50,[10],8 µg/mL
same,MIC90,[10],> 32 µg/mL
same,MIC50,[11],4 µg/mL
same,MIC90,[11],> 32 µg/mL
same,MIC,[12],16 µg/mL
same,MIC,[13],≤ 0.06 µg/mL
same,MIC,[14],0.125 µg/mL
same,MIC,[15],≤ 0.06 µg/mL
same,MIC,[16],0.125 µg/mL
same,MIC,[17],32 µg/mL
same,MIC,[18],> 32 µg/mL
same,MIC,[19],> 32 µg/mL
same,MIC,[20],> 32 µg/mL
same,MIC,[21],> 32 µg/mL
same,MIC,[22],32 µg/mL
same,MIC,[23],> 32 µg/mL
same,MIC,[24],0.125 µg/mL
same,MIC,[25],> 32 µg/mL
same,MIC,[26],> 32 µg/mL
same,MIC,[27],≤ 0.06 µg/mL
same,MIC,[28],0.5 µg/mL
same,MIC,[29],0.125 µg/mL
same,MIC,[30],0.5 µg/mL
same,MIC,[31],1 µg/mL
same,MIC,[32],2 µg/mL
same,MIC,[33],1 µg/mL
same,MIC,[34],2 µg/mL
same,MIC,[35],1 µg/mL
same,MBC,[36],0.25 µg/mL
same,MIC,[37],1 µg/mL
same,MIC,[37]; [53],1 µg/mL
same,Activity,[38],inactive
same,Activity,[39],Active
same,Activity,[40],Active
same,Activity,[41],Active
same,Activity,[42],Active
same,Activity,[43],1 frequency
same,Activity,[44],1 frequency
same,Activity,[45],inactive
same,Activity,[46],9 passages
same,Activity,[47],inactive
same,MIC,[48],0.125 µg/mL
same,MIC,[49],> 32 µg/mL
same,MIC,[50],1 µg/mL
same,MIC,[51],1 µg/mL
same,MIC,[52],2 µg/mL
